US20140271822A1, “MODIFIED DOCETAXEL LIPOSOME FORMULATIONS” (Mallinckrodt LLC, priority 2013, published 2014)
Entries after “also recorded” stand apart in the source; their conditions may differ.

Key:
[1] = Tissue distribution in mice with PC3 xenografts; settings: docetaxel in tissue
Method: (§1) The plasma pharmacokinetics and distribution were studied in male athymic nude mice each implanted subcutaneously with PC3 cells (human prostate cancer). Once tumors reached a volume of 100-300 mm^3, animals were randomized into 5 groups.
(§2) Three animals were sacrificed at 5 minutes and 1, 4, 24, 48, 72, 120 and 168 hours post injection. Blood samples were taken for pharmacokinetic analysis at each time. Pharmacokinetic parameters of TD-1 and docetaxel were calculated using the Phoenix WinNonLin software by non-compartment analysis modeling.
In addition to the plasma levels and pharmacokinetic calculations described above, tissue distribution was also evaluated. Tissues harvested from each animal described in Table 5 and frozen before analysis included: tumor, liver, spleen, and kidney.

[2] = Plasma pharmacokinetics in nude mice bearing PC3 xenografts; settings: single iv; for plasma docetaxel concentrations falling below the levels of detection after: free drugs
Method: as §1, §2

[3] = tested on: human A253 (Head & Neck) tumor xenografts; assay: Antitumor activity, A253 head & neck xenograft; format: in vivo, athymic nude mice; settings: for TGI (%): day 31 post treatment
Text: The studies were of broadly similar design.

[4] = tested on: human A549 NSCLC tumor xenografts; assay: Antitumor activity, A549 NSCLC xenograft, single dose; format: in vivo, athymic nude mice
Method: (§3) The studies were of broadly similar design. Tumor cell lines were implanted subcutaneously into the flank of nude (immunodeficient) mice and allowed to grow to a fixed size. […] In each case, where possible, doses were selected as providing equivalent levels of toxicity/tolerance. […] Tumor volume was analyzed to determine tumor growth delay (TGD) and partial regression. Mice were removed from the study if they lost 20% of their initial bodyweight or became moribund or if their tumor volume exceeded 2500 mm^3 or the tumor ulcerated. If less than half of the initial cohort of mice remained, that group was no longer graphed or included in further tumor analysis. However, any remaining animals were followed until completion of the in-life observation period and included in a survival analysis.

[5] = tested on: human PC3 (prostate) tumor xenografts; assay: Antitumor activity, PC3 prostate xenograft; format: in vivo, athymic nude mice; settings: docetaxel 18 and 27 mg/kg
Method: as §3

[6] = tested on: MDA-MB-435/PTK7 (human breast) tumor xenografts; assay: Antitumor activity, MDA-MB-435/PTK7 breast xenograft; format: in vivo, athymic nude mice
Method: as §3

[7] = tested on: HT1080/PTK7 human fibrosarcoma tumor xenografts; assay: Antitumor activity, HT1080/PTK7 fibrosarcoma xenograft; format: in vivo, athymic nude mice
Method: as §3

[8] = tested on: A431 human epidermoid tumor xenografts; assay: Antitumor activity, A431 epidermoid xenograft; format: in vivo, athymic nude mice
Method: as §3

[9] = mouse, in vivo
Method: (§4) The plasma pharmacokinetics and distribution were studied in female athymic nude mice each implanted subcutaneously with A549 cells (human non-small cell lung cancer). Once tumors reached a volume of 100-300 mm^3, animals were randomized into 4 groups.
(§5) Three animals were sacrificed at 1, 4, 24, 72 (3 days), 168 (7 days), 216 (9 days), 336 (14 days), 432 (18 days) and 504 hours (21 days) post injection. Blood samples were taken for pharmacokinetic analysis at each time point. Pharmacokinetic parameters of TD-1 and docetaxel were calculated using the Phoenix WinNonLin software by non-compartment analysis modeling.

in vivo [10] = settings: male, athymic nude, mouse, plasma, iv, 19 mg/kg
Method: as §1, §2

in vivo [11] = settings: female, athymic nude, mouse, iv
Method: as §4, §5

[12] = Tissue distribution in mice with A549 xenografts; settings: for Kidney AUC / Liver AUC / Spleen AUC / Tumor AUC: docetaxel in tissue
Method: as §4
Three animals were sacrificed at 1, 4, 24, 72 (3 days), 168 (7 days), 216 (9 days), 336 (14 days), 432 (18 days) and 504 hours (21 days) post injection. Blood samples were taken for pharmacokinetic analysis at each time point.

[13] = tested on: A549 human NSCLC tumor xenografts; assay: Antitumor activity, A549 NSCLC xenograft, two doses 21 days apart; settings: for Median Survival / Partial Tumor Regression (%) / TGD / TGD (%): two doses 21 days apart
Method: The studies were of broadly similar design. Tumor cell lines were implanted subcutaneously into the flank of nude (immunodeficient) mice and allowed to grow to a fixed size. […] In each case, where possible, doses were selected as providing equivalent levels of toxicity/tolerance. The highest doses of TD-1 were usually limited by the volume that could be administered. Tumor volume was analyzed to determine tumor growth delay (TGD) and partial regression. Mice were removed from the study if they lost 20% of their initial bodyweight or became moribund or if their tumor volume exceeded 2500 mm^3 or the tumor ulcerated. If less than half of the initial cohort of mice remained, that group was no longer graphed or included in further tumor analysis. However, any remaining animals were followed until completion of the in-life observation period and included in a survival analysis.

[14] = TD-1 in plasma, dose 11 mg/kg (docetaxel equivalent)
[15] = docetaxel in plasma, dose 11 mg/kg (docetaxel equivalent)
[16] = 30 mg/kg (docetaxel equivalent) single iv
[17] = dose 19 mg/kg (docetaxel equivalent)
[18] = docetaxel in plasma, dose 19 mg/kg (docetaxel equivalent)

In the case of `CC(=O)O[C@@]12CO[C@@H]1C[C@H](O)[C@@]1(C)C(=O)[C@H](O)C3=C(C)[C@@H](OC(=O)[C@H](OC(=O)CCCN4CCN(C)CC4)[C@@H](NC(=O)OC(C)(C)C)c4ccccc4)C[C@@](O)([C@@H](OC(=O)c4ccccc4)[C@H]21)C3(C)C` [TD-1, 2′O-4-(4-methylpiperazin-1-yl)-butanoyl-docetaxel], the “Tumor AUC” value ([1]; dose 11 mg/kg (docetaxel equivalent)) is reported as 314 µg·h/g, the AUC [2, 14] is reported as 5700 ng·h/mL and the AUC/Dose [2, 14] is reported as 0.4. For the same molecule, the CL [2, 14] was 39.77 mL/min/kg, the Cmax [2, 14] was 5000 ng/mL and the Cmax/Dose [2, 14] was 0.4. It also gave a Vz [2, 14] of 26.01 L/kg, a t1/2 [2, 14] of 7.6 h and an AUC [2, 15] of 4100 ng·h/mL. For the same molecule, the AUC/Dose [2, 15] was 0.4, the CL [2, 15] was 43.18 mL/min/kg and the Cmax [2, 15] was 1400 ng/mL. The Cmax/Dose [2, 15] was 0.1, the Vz [2, 15] was 40.905 L/kg and the t1/2 [2, 15] was 11 h. For the same molecule, the “plasma docetaxel concentrations falling below the levels of detection after” value [2] was 48 h.

For `CC(=O)O[C@@]12CO[C@@H]1C[C@H](O)[C@@]1(C)C(=O)[C@H](O)C3=C(C)[C@@H](OC(=O)[C@H](O)[C@@H](NC(=O)OC(C)(C)C)c4ccccc4)C[C@@](O)([C@@H](OC(=O)c4ccccc4)[C@H]21)C3(C)C` [Docetaxel, docetaxel], the “Median Survival” value ([3]; 10 mg/kg single iv) was 64 days, the TGD ([3]; 10 mg/kg single iv) was 0 days and the “TGD (%)” value ([3]; 10 mg/kg single iv) was 0%. The “TGI (%)” value ([3]; 10 mg/kg single iv) was 0%, the “Median Survival” value ([3]; 20 mg/kg single iv) was 62 days and the TGD ([3]; 20 mg/kg single iv) was 0 days. For the same molecule, the “TGD (%)” value ([3]; 20 mg/kg single iv) was 0%, the “TGI (%)” value ([3]; 20 mg/kg single iv) was 0% and the “Median Survival” value [3, 16] was 73 days. For the same molecule, the TGD [3, 16] was 5 days, the “TGD (%)” value [3, 16] was 9% and the “TGI (%)” value [3, 16] was 12%. For the same molecule, the “effect on tumor volumes and survival” value ([3]; docetaxel 10, 20, 30 mg/kg) was “failed to reduce A253 tumor volumes significantly or extend survival”, the “Median Survival” value ([4]; 10 mg/kg single iv) was 96 days and the “Partial Tumor Regression (%)” value ([4]; 10 mg/kg single iv) was 0%. The “TGI (%)” value ([4]; 10 mg/kg single iv) was 0%, the “Partial Tumor Regression (%)” value ([4]; 20 mg/kg single iv) was 0% and the “TGI (%)” value ([4]; 20 mg/kg single iv) was 4%. For the same molecule, the “Partial Tumor Regression (%)” value [4, 16] was 10%, the “TGI (%)” value [4, 16] was 38% and the “effect on tumor volumes and survival” value ([4]; docetaxel 10, 20, 30 mg/kg) was “failed to reduce A549 tumor volumes significantly or extend survival”. The tumor growth [5] was “inhibited tumor growth”, the “survival compared to saline” value ([5]; p<0.05) was “increased survival significantly more than saline” and the “Median Survival” value ([6]; 9 mg/kg single iv) was 15 days. For the same molecule, the “Partial Tumor Regression (%)” value ([6]; 9 mg/kg single iv) was 0%, the TGD ([6]; 9 mg/kg single iv) was 1 and the “TGD (%)” value ([6]; 9 mg/kg single iv) was 9%. The “Median Survival” value ([6]; 18 mg/kg single iv) was 28 days, the “Partial Tumor Regression (%)” value ([6]; 18 mg/kg single iv) was 13% and the TGD ([6]; 18 mg/kg single iv) was 10. The “TGD (%)” value ([6]; 18 mg/kg single iv) was 91%, the “TGI (%)” value ([6]; 18 mg/kg single iv) was 26% and the “Median Survival” value ([6]; 27 mg/kg single iv) was 35 days. The “Partial Tumor Regression (%)” value ([6]; 27 mg/kg single iv) was 38%, the TGD ([6]; 27 mg/kg single iv) was 18 and the “TGD (%)” value ([6]; 27 mg/kg single iv) was 164%. The “TGI (%)” value ([6]; 27 mg/kg single iv) was 42%, the tumor growth ([6]; docetaxel 18 and 27 mg/kg) was “inhibited tumor growth” and the “Median Survival” value ([7]; 9 mg/kg single iv) was 11.5 days. The “Partial Tumor Regression (%)” value ([7]; 9 mg/kg single iv) was 0%, the “TGI (%)” value ([7]; 9 mg/kg single iv) was 52% and the “Median Survival” value ([7]; 18 mg/kg single iv) was 23 days. The “Partial Tumor Regression (%)” value ([7]; 18 mg/kg single iv) was 10%, the TGD ([7]; 18 mg/kg single iv) was 7 and the “TGD (%)” value ([7]; 18 mg/kg single iv) was 70%. For the same molecule, the “TGI (%)” value ([7]; 18 mg/kg single iv) was 31%, the “Median Survival” value ([7]; 27 mg/kg single iv) was 30 days and the “Partial Tumor Regression (%)” value ([7]; 27 mg/kg single iv) was 70%. The TGD ([7]; 27 mg/kg single iv) was 16, the “TGD (%)” value ([7]; 27 mg/kg single iv) was 160% and the “TGI (%)” value ([7]; 27 mg/kg single iv) was 89%. For the same molecule, the survival ([7]; docetaxel) was “did not significantly increase survival”, the “tumor growth compared to saline” value ([7]; docetaxel 27 mg/kg, day 14) was “inhibited tumor growth; also recorded: significantly smaller tumors than saline” and the “Median Survival” value ([8]; 20 mg/kg single iv) was 17 days. For the same molecule, the “Partial Tumor Regression (%)” value ([8]; 20 mg/kg single iv) was 63%, the TGD ([8]; 20 mg/kg single iv) was 13 and the “TGD (%)” value ([8]; 20 mg/kg single iv) was 1408%. For the same molecule, the “TGI (%)” value ([8]; 20 mg/kg single iv) was 123%, the “Median Survival” value ([8]; 30 mg/kg single iv) was 9 days and the “Partial Tumor Regression (%)” value ([8]; 30 mg/kg single iv) was 50%. The “TGI (%)” value ([8]; 30 mg/kg single iv) was 120%, the “tumor growth compared to saline” value ([8]; docetaxel 20 and 30 mg/kg, day 7) was “inhibited tumor growth; also recorded: significantly smaller tumors than saline” and the “plasma docetaxel detectable for” value [9] was “only four hours”. For the same molecule, the AUC (in vivo [10]) was 13000 ng·h/mL, the Cmax (in vivo [10]) was 13000 ng/mL and the Vd (in vivo [10]) was 16.1 L/kg. It also gave a clearance (in vivo [10]) of 25 mL/min/kg, a half-life (in vivo [10]) of 7.4 h and an AUC(0-inf) (in vivo [11]; 30 mg/kg) of 8800 ng·h/mL. The Cmax (in vivo [11]; 30 mg/kg) was 2700 ng/mL, the Vd (in vivo [11]; 30 mg/kg) was 16.1 L/kg and the AUC(0-inf) (in vivo [11]; 50 mg/kg) was 27000 ng·h/mL. The Cmax (in vivo [11]; 50 mg/kg) was 8600 ng/mL, the Vd (in vivo [11]; 50 mg/kg) was 37.2 L/kg and the “Kidney AUC” value [1, 17] was 73 µg·h/g. For the same molecule, the “Liver AUC” value [1, 17] was 50 µg·h/g, the “Spleen AUC” value [1, 17] was 94 µg·h/g and the “Tumor AUC” value [1, 17] was 896 µg·h/g. The “tumor retained measurable levels of docetaxel through” value ([12]; docetaxel 50 mg/kg) was 216 h, the “tissue concentrations of docetaxel fell below the limits of quantitation after” value ([12]; docetaxel 50 mg/kg, most of the tissues except tumor) was 24 h and the “Kidney AUC” value ([12]; dose 30 mg/kg) was 28 µg·h/g. For the same molecule, the “Liver AUC” value ([12]; dose 30 mg/kg) was 10 µg·h/g, the “Spleen AUC” value ([12]; dose 30 mg/kg) was 77 µg·h/g and the “Tumor AUC” value ([12]; dose 30 mg/kg) was 276 µg·h/g. The “Kidney AUC” value ([12]; dose 50 mg/kg) was 179 µg·h/g, the “Liver AUC” value ([12]; dose 50 mg/kg) was 37 µg·h/g and the “Spleen AUC” value ([12]; dose 50 mg/kg) was 162 µg·h/g. The “Tumor AUC” value ([12]; dose 50 mg/kg) was 442 µg·h/g, the “docetaxel in liver, spleen and kidney fell below the levels of detection within” value ([12]; free docetaxel, after injection) was ≤ 24 h and the “tumor docetaxel falling below the levels of quantitation (1.0 μg/g) after” value ([12]; intravenous injection of docetaxel) was “nine days”. The AUC/Dose [2, 18] was 0.7, the Cmax/Dose [2, 18] was 0.7 and the “plasma docetaxel concentrations falling below the levels of detection after” value [2] was 48 h. For the same molecule, the “Median Survival” value ([13]; 18 mg/kg) was 56 days, the “Partial Tumor Regression (%)” value ([13]; 18 mg/kg) was 0% and the TGD ([13]; 18 mg/kg) was 19. The “TGD (%)” value ([13]; 18 mg/kg) was 66%, the “Median Survival” value ([13]; 27 mg/kg) was 100 days and the “Partial Tumor Regression (%)” value ([13]; 27 mg/kg) was 10%. For the same molecule, the TGD ([13]; 27 mg/kg) was 41, the “TGD (%)” value ([13]; 27 mg/kg) was 141% and the “survival compared to saline” value ([13]; all dose levels, p<0.05) was “increased survival significantly compared to saline”. For the same molecule, the “tumor growth compared to saline” value ([13]; docetaxel 18 and 27 mg/kg, days 0 and 21, day 37) was “inhibited tumor growth; also recorded: significantly smaller tumors than saline”.
